# Laboratory results reported in paper PMC13503280, “A pharmacological modality to sequester homomeric proteins” (Nature Chemical Biology, 2026).
# Experiments:
# Nrf2 = test: WB of Nrf2; format: cell-based; details: U2OS cells, 20 h compound treatment
# recombinant Keap1 BTB = target: T1, recombinant Keap1 BTB (Homo sapiens, UniProt Q14145, S172A); test: In vitro crosslinking of Keap1 BTB using GA; format: biochemical; details: 50 µM Keap1, 50 µM compound
# T1 construct: The Keap1 BTB domain (48–180) encoding the single substitution S172A was cloned into pET28-bdSumo vector; His–bdSumo (N, cleaved yes); made in house; host or cells: E. coli BL21(DE3)
# T1 sequence (Q14145 48-180 S172A): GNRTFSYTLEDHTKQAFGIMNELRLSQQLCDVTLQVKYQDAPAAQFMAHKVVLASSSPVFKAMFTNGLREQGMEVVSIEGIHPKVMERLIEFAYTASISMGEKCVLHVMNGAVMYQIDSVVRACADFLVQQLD
# Protocol: Recombinant Keap1 samples were incubated at room temperature in desired conditions in a buffer containing 25 mM HEPES, 150 mM NaCl pH 8, 1 mM TCEP and 0.01% Tween. At the selected time point, each sample was treated with a 7.5% aqueous solution of GA (prepared fresh) for a final GA concentration of 0.125% and mixed gently. The crosslinking reaction was left at room temperature for 40 min, followed by addition of NuPage gel sample buffer with 20 mM DTT and boiling at 95 °C for 5 min. Lastly, 2–3 μg of each sample was loaded and run on an SDS–PAGE gel. Bands were visualized using a Coomassie blue solution.
# Keap1 = Keap1 (Homo sapiens, UniProt Q14145); test: Global proteomics of soluble lysate of U2OS cells; format: cell-based; details: EL133 250 nM, 20 h, RIPA lysis, relative to control
# Keap1, sequence (Q14145 whole entry): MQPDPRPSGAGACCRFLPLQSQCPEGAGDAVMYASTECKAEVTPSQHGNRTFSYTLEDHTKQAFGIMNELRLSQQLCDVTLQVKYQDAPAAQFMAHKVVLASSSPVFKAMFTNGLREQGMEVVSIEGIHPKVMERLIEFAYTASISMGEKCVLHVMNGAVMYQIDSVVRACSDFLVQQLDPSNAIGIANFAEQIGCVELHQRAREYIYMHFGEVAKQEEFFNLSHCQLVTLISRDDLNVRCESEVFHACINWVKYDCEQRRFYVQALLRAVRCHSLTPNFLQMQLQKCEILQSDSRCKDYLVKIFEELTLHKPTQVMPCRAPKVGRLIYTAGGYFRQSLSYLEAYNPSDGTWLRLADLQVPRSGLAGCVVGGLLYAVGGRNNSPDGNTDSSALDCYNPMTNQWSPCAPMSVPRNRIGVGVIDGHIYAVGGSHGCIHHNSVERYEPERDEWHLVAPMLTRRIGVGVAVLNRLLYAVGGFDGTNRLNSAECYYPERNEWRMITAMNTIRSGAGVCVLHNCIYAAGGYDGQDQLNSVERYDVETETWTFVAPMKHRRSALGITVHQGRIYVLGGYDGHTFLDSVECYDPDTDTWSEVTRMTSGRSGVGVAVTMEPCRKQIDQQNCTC
# Protocol: Cells were incubated with DMSO at 0.1% or with compound for 20 h unless indicated differently, in quadruplicate. […] Samples were then reduced using DTT, followed by reaction with iodoacetamide. The labeled proteins were then precipitated on a dispersion of glass beads, followed by overnight trypsin digestion and purification of peptides. Samples were analyzed using an EASY-nLC 1200 nano-flow ultrahigh-performance LC system, equipped with a PepMap RSLC C18 column (particle size: 2 µm, pore size: 100 Å, diameter: 75 µm, length: 50 cm), mounted using an EASY-Spray source onto an Exploris 240 MS instrument. LC–MS-grade solvents were used for all chromatographic steps at 300 nl min^−1. The mobile phase consisted of solvent A (H2O + 0.1% formic acid) and solvent B (80% acetonitrile + 0.1% formic acid). Peptides were eluted from the column into the MS instrument using the following gradient: 1–40% B in 160 min, 40–100% B in 5 min, maintained at 100% for 20 min, 100–1% in 10 min and finally 1% for 5 min. […] Initially, data were acquired in data-independent acquisition mode. […] Four samples were analyzed per condition.
# Data analysis was performed using Fragpipe[87],[88] […] Label-free quantification was performed using DIANN. After analysis, the quantified protein file was analyzed using Perseus[89]. […] Differences and P values were calculated using a double-sided Student’s t-test. […]
smiles,measurement,setting,value
CC1(C)CCC2(C(=O)NCCOCCOCCNC(=O)C34CCC(C)(C)CC3C3C(=O)C=C5C6(C)C=C(C#N)C(=O)C(C)(C)C6CCC5(C)C3(C)CC4)CCC3(C)C(C(=O)C=C4C5(C)C=C(C#N)C(=O)C(C)(C)C5CCC43C)C2C1 (stereo not drawn) [EL133],Nrf2 levels (WB),Nrf2,Nrf2 upregulation
same,higher-order assemblies after GA crosslinking (SDS–PAGE),recombinant Keap1 BTB,induced the formation of higher-order assemblies
same,Keap1 level in soluble fraction (quantitative proteomics),Keap1,significantly downregulated
